Test results from US8426345B2, “Method of drug design” (Alchemia Limited, priority 2005, dated 2013).

Target: T1, Human SST5 somatostatin receptor (Homo sapiens, UniProt P35346)
T1 construct: expressed in transfected cells; host or cells: HEK-293 EBNA cells (membranes)
Test: Filter plate radio-ligand binding assay for SST5 receptor ([125I]SST-14 displacement)
Conditions: 3P library; for % SST5 radio-ligand binding displaced at conc 0.25: conc 0.25 μM; for % SST5 radio-ligand binding displaced at conc 1.0: conc 1.0 μM

T1 sequence (P35346 whole entry): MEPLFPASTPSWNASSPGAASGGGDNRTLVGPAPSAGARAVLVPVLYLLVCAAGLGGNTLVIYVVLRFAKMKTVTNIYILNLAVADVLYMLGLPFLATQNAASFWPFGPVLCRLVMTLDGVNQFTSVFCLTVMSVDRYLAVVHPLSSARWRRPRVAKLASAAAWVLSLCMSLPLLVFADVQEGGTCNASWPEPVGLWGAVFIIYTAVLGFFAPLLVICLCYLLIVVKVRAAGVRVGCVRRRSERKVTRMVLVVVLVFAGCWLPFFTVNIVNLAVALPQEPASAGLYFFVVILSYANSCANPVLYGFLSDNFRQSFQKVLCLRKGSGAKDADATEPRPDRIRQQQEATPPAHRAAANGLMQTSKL

SMILES | % SST5 radio-ligand binding displaced at conc 0.25 | % SST5 radio-ligand binding displaced at conc 1.0 | also measured
COC[C@H]1O[C@H](OCc2ccc3ccccc3c2)[C@H](NC(=O)C2CCCNC2)[C@@H](OCc2ccc3ccccc3c2)[C@@H]1O (stereo partly drawn) [Compound 103] | + (% SST5 radio-ligand binding displaced at cone (μM) 60>+>40%) | ++ (% SST5 radio-ligand binding displaced at conc (μM) >60%) | –
COCC1OC(OCc2ccc3ccccc3c2)C(NC(=O)C2CCCCC2N)C(OCc2ccc3ccccc3c2)C1O (stereo not drawn) [Compound 104] | − (% SST5 radio-ligand binding displaced at cone (μM) −<40%) | − (% SST5 radio-ligand binding displaced at cone (μM) −<40%) | –
COCC1OC(OCc2ccc3ccccc3c2)C(NC(=O)C2CCCCC2N)C(OCc2ccc3ccccc3c2)C1O (stereo not drawn) [Compound 105] | − (% SST5 radio-ligand binding displaced at cone (μM) −<40%) | − (% SST5 radio-ligand binding displaced at cone (μM) −<40%) | –
COC[C@H]1O[C@H](OCc2ccc3ccccc3c2)[C@H](NC(=O)CCN(C)C)[C@@H](OCc2ccc3ccccc3c2)[C@@H]1O [Compound 106] | − (% SST5 radio-ligand binding displaced at cone (μM) −<40%) | − (% SST5 radio-ligand binding displaced at cone (μM) −<40%) | –
COC[C@H]1O[C@H](OCc2ccc3ccccc3c2)[C@H](NC(=O)CCN)[C@@H](OCc2cccc(Cl)c2)[C@@H]1O [Compound 107] | ++ (% SST5 radio-ligand binding displaced at conc (μM) >60%) | ++ (% SST5 radio-ligand binding displaced at conc (μM) >60%) | –
COC[C@H]1O[C@H](OCc2ccc3ccccc3c2)[C@H](NC(=O)CCN)[C@@H](OCc2cc(Cl)ccc2Cl)[C@@H]1O [Compound 108] | + (% SST5 radio-ligand binding displaced at cone (μM) 60>+>40%) | ++ (% SST5 radio-ligand binding displaced at conc (μM) >60%) | –
COC[C@H]1O[C@H](OCc2ccc3ccccc3c2)[C@H](NC(=O)CCN)[C@@H](OCc2ccccc2Cl)[C@@H]1O [Compound 109] | − (% SST5 radio-ligand binding displaced at cone (μM) −<40%) | ++ (% SST5 radio-ligand binding displaced at conc (μM) >60%) | –
COC[C@H]1O[C@H](OCc2ccc3ccccc3c2)[C@H](NC(=O)CCN)[C@@H](OCc2cccc3cccnc23)[C@@H]1O [Compound 110] | ++ (% SST5 radio-ligand binding displaced at conc (μM) >60%) | ++ (% SST5 radio-ligand binding displaced at conc (μM) >60%) | –
COC[C@H]1O[C@H](OCc2ccc3ccccc3c2)[C@H](NC(=O)CCN)[C@@H](OCc2nc3ccccc3s2)[C@@H]1O [Compound 111] | − (% SST5 radio-ligand binding displaced at cone (μM) −<40%) | − (% SST5 radio-ligand binding displaced at cone (μM) −<40%) | –
COC[C@H]1O[C@H](OCc2ccc3ccccc3c2)[C@H](NC(=O)CCN)[C@@H](OCc2nccc3ccccc23)[C@@H]1O [Compound 112] | + (% SST5 radio-ligand binding displaced at cone (μM) 60>+>40%) | ++ (% SST5 radio-ligand binding displaced at conc (μM) >60%) | –
COC[C@H]1O[C@H](OCc2ccc3ccccc3c2)[C@H](NC(=O)CCN)[C@@H](OCc2ccc(Cl)c(Cl)c2)[C@@H]1O [Compound 113] | ++ (% SST5 radio-ligand binding displaced at conc (μM) >60%) | ++ (% SST5 radio-ligand binding displaced at conc (μM) >60%) | –
COC[C@H]1O[C@H](OCc2ccc3ccccc3c2)[C@H](NC(=O)CCN)[C@@H](OCc2cccc3ccccc23)[C@@H]1O [Compound 114] | ++ (% SST5 radio-ligand binding displaced at conc (μM) >60%) | ++ (% SST5 radio-ligand binding displaced at conc (μM) >60%) | –
COC[C@H]1O[C@H](OCc2ccc3ccccc3c2)[C@H](NC(=O)CCN)[C@@H](OCc2ccc(Cl)cc2Cl)[C@@H]1O [Compound 115] | + (% SST5 radio-ligand binding displaced at cone (μM) 60>+>40%) | ++ (% SST5 radio-ligand binding displaced at conc (μM) >60%) | –
COC[C@H]1O[C@H](OCc2ccc3ccccc3c2)[C@H](NC(=O)CCN)[C@@H](OCc2ccc3ccccc3n2)[C@@H]1O [Compound 116] | + (% SST5 radio-ligand binding displaced at cone (μM) 60>+>40%) | ++ (% SST5 radio-ligand binding displaced at conc (μM) >60%) | –
COC[C@H]1O[C@H](OCc2ccc3ccccc3c2)[C@H](NC(=O)CCN)[C@@H](OCc2cccc(Cl)c2Cl)[C@@H]1O [Compound 117] | ++ (% SST5 radio-ligand binding displaced at conc (μM) >60%) | ++ (% SST5 radio-ligand binding displaced at conc (μM) >60%) | –
COC[C@H]1O[C@H](OCc2ccc3ccccc3c2)[C@H](NC(=O)CCN)[C@@H](OCc2ccc(Oc3ccccc3)cc2)[C@@H]1O [Compound 118] | ++ (% SST5 radio-ligand binding displaced at conc (μM) >60%) | ++ (% SST5 radio-ligand binding displaced at conc (μM) >60%) | –
COC[C@H]1O[C@H](OCc2ccc3ccccc3c2)[C@H](NC(=O)CCCN)[C@@H](OC)[C@@H]1O [Compound 119] | – | – | % SST5 radio-ligand binding displaced at conc 50 (conc 50 μM): − (% SST5 radio-ligand binding displaced at cone (μM) −<40%); % SST5 radio-ligand binding displaced at conc 250 (conc 250 μM): + (% SST5 radio-ligand binding displaced at cone (μM) 60>+>40%); % SST5 radio-ligand binding displaced at conc 500 (conc 500 μM): ++ (% SST5 radio-ligand binding displaced at conc (μM) >60%)
COC[C@H]1O[C@H](OCc2ccc3ccccc3c2)[C@H](NC(=O)CCCN)[C@@H](OCc2ccc(Cl)cc2)[C@@H]1O [Compound 134] | – | ++ (% SST5 radio-ligand binding displaced at conc (μM) >60%) | % SST5 radio-ligand binding displaced at conc 0.001 (conc 0.001 μM): + (% SST5 radio-ligand binding displaced at cone (μM) 60>+>40%); % SST5 radio-ligand binding displaced at conc 0.10 (conc 0.10 μM): ++ (% SST5 radio-ligand binding displaced at conc (μM) >60%); % SST5 radio-ligand binding displaced at conc 0.5 (conc 0.5 μM): ++ (% SST5 radio-ligand binding displaced at conc (μM) >60%); % SST5 radio-ligand binding displaced at conc 10 (conc 10 μM): ++ (% SST5 radio-ligand binding displaced at conc (μM) >60%)
NCCCC(=O)N[C@H]1[C@@H](OCc2ccc3ccccc3c2)O[C@H](COCc2ccc3ccccc3c2)[C@@H](O)[C@@H]1OCc1ccc(Cl)cc1 [Compound 135] | − (% SST5 radio-ligand binding displaced at cone (μM) −<40%) | ++ (% SST5 radio-ligand binding displaced at conc (μM) >60%) | –
